Reference: patent US8680094B2, “1, 4-benzoxazine compounds and derivatives thereof as therapeutic drugs for the treatment of neurodegenerative conditions” (Board of Regents, The University of Texas System, priority 2008, dated 2014)
Values joined by “and” are separate entries in the source; they are usually repeats but may differ in a detail not shown here. Equal values may be shown once.

Tested on: cerebellar granule neurons
Assay: LK-induced death of cultured cerebellar granule neurons, viability by DAPI staining
Format: cell-based, rat
Conditions: for neuroprotection against LK-induced neuronal death, in words: overall over 1, 5 and 25 μM; for protection at doses lower than 1 μM compared with 1 μM: 0.5, 0.25 and 0.1 μM
Method: Culturing and treatments of cerebellar granule neurons: Granule neuron cultures were obtained from dissociated cerebella of 6-7 day old Wistar rats as described previously (D'Mello et al., 1993). Cells were plated in Basal Eagle's Medium (BME) supplemented with 10% fetal calf serum (FCS), 25 mM KCl, 2 mM glutamine (Invitrogen), and 100 μg/ml gentamycin in poly-L-lysine coated 24-well dishes at a density 1×10^6 cells/well. Cytosine arabinofuranoside (10 μM) was added to the culture medium 18-22 h after plating to prevent replication of nonneuronal cells. Previous immunocytochemical analyses by our lab and other investigators have shown that these cultures have high purity containing over 95% granule neurons (Thangnipon et al., 2003; Kingsbury et al., 2005).
The neuronal cultures were maintained for 7-8 days prior to treatment. For treatment, the cells were rinsed once and then maintained in low K+ medium (serum-free BME medium; referred to as LK), or in the case of control cultures, in high K+ medium (serum-free BME medium supplemented with 20 mM KCl; referred to as HK). For treatments, the chemical compounds (dissolved in dimethylsulfoxide) were added directly to LK medium at the time of the switch from HK at concentrations of 1, 5, or 25 μM. Viability was assessed 24 hours by 4′,6′-diamidino-2-phenylindole hydrochloride (DAPI) staining (see below). Each compound was tested in duplicate (at each of the concentrations) and the experiment repeated at least 3 times.
The viability status of neuronal cultures treated with HK, LK, or LK medium supplemented with various compounds was evaluated by phase contrast microscopy and quantified by staining cell nuclei with DAPI as previously described (Yalcin et al., 2003; Morrison et al., 2006; Majzadeh et al., 2007)). Briefly, the cells were fixed in 4% paraformaldehyde for 20 min at 4° C. After washing in phosphate buffered saline, diamidino-2-phenylindole hydrochloride (DAPI; 1 μg/ml in phosphate buffered saline) was added for 15 min at room-temperature and viewed under ultraviolet light (260 nm). Cells with condensed or fragmented nuclei were scored as dead. Viability has been expressed as percent of control cultures, which were switched to HK medium). Statistical analysis was performed using an unpaired, two-tailed Student's T test, compared to mean neuronal survival of control cultures receiving LK treatment.
When cultured cerebellar granule neurons are switched from HK to LK medium about 50% of the cells underwent apoptosis within 24 h (D'Mello et al., 1993). The inventors utilized this widely used and recognized model to test a total of 20 different 1,4-benzoxazine derivatives for their ability to protect against LK-induced neuronal death. Each compound was tested at 3 different doses—1 μM, 5 μM and 25 μM and viability quantified by DAPI-staining. The highest does was included to test for possible toxicity effects of the compounds. Key results were confirmed using TUNEL staining, another reliable assay of apoptosis (FIG. 1). As shown in Table 1 and FIG. 1, the present invention identifies several compounds with significant neuroprotective effect. Two of the most protective compounds are HSB-13 and HSB-22, both with Ar=3′,5′-dibromo-4′-hydroxyphenyl (FIG. 1). […] Protection with this compound is lower than that observed with HSB-13 and HSB-22 at the two lower doses. […] To examine whether a higher level of protection could be observed at doses lower than 1 μM, the analyses of these compounds was extended to doses of 0.5, 0.25, and 0.1 μM.
When cultured cerebellar granule neurons are switched to LK medium, about 50% of the cells undergo apoptosis within 24 h. In this study, a total of 20 different 1,4-benzoxazine derivatives of the structure shown in FIG. 1 were tested for their ability to protect against LK-induced death of cerebellar granule neurons. Each compound was tested at 3 different doses —1 μM, 5 μM and 25 μM. […]

[1] = Table 1, 1 μM in LK medium, 24 h, % of survival in control cultures in HK medium, LK alone 48%
[2] = Table 1, 5 μM in LK medium, 24 h, % of survival in control cultures in HK medium, LK alone 48%
[3] = Table 1, 25 μM in LK medium, 24 h, % of survival in control cultures in HK medium, LK alone 48%
[4] = Table 4, 1 μM in LK medium, % of survival in HK control cultures, LK alone 48.16±8.44%
[5] = Table 4, 5 μM in LK medium, % of survival in HK control cultures, LK alone 48.16±8.44%
[6] = Table 4, 25 μM in LK medium, % of survival in HK control cultures, LK alone 48.16±8.44%

Row | Structure (SMILES) | % Survival [1] | % Survival [2] | % Survival [3] | % Survival [4] | % Survival [5] | % Survival [6] | neuroprotection against LK-induced neuronal death, in words | protection at doses lower than 1 μM compared with 1 μM | % Survival (Table 4, 25 μM in LK medium, % of survival in HK control cultures, LK alone 48.16±8.44%, listed as HSB-) | protection against LK-induced neuronal death (FIG. 1) (25 μM, 24 h, phase contrast microscopy, DAPI-staining, TUNEL-staining)
1 | O=C1Nc2ccccc2O/C1=C\c1cc(Br)cc(Br)c1 [ASK-1] | 75.3 ± 10.56% | 68.8 ± 12.99% | 69.1 ± 7.56% | 75.3 ± 10.56% | 68.8 ± 12.99% | 69.1 ± 7.56% | lack of neuroprotection | – | – | –
2 | S=C1Nc2ccccc2OC1=Cc1cccs1 [ASK-8] | – | 60.8 ± 2.62% | 39.3 ± 7.78% | 73.3 ± 0.79 % | 60.8 ± 2.62% | 39.3 ± 7.78% | inactive | lower | – | –
3 | CN1C(=S)C(=Cc2ccc[nH]2)Oc2ccccc21 [ASK-9] | – | 70.2 ± 5.32% | 65.1 ± 5.63% | 84.5% and 84.5 ± 3.30 % | 70.2 ± 5.32% | 65.1 ± 5.63% | – | lower | – | –
4 | COc1ccc(OC)c(C=C2Oc3ccccc3NC2=S)c1 [ASK-11] | 73.8 ± 2.31% | 90.7 ± 14.50 % | 74.0 ± 3.59% | 73.8 ± 2.31% | 90.7% and 90.7 ± 14.50 % | 74.0 ± 3.59% | significant level of protection | – | – | –
5 | CC(=O)Oc1c(Br)cc(/C=C2\Oc3ccc([N+](=O)[O-])cc3NC2=O)cc1Br [HSB-1] | 58.8 ± 10.31% | – | 63.5 ± 9.34% | 58.8 ± 10.31% | – | 63.5 ± 9.34% | – | – | – | –
6 | CC(=O)Oc1c(Br)cc(/C=C2\Oc3ccc(Cl)cc3NC2=O)cc1Br [HSB-2] | 44.1 ± 23.42% | 62.3 ± 15.64% | – | 44.1 ± 23.42% | 62.3 ± 15.64% | – | – | – | – | –
7 | CC(=O)Oc1c(Br)cc(/C=C2\Oc3ccc(C)cc3NC2=O)cc1Br [HSB-3] | 56.9 ± 11.54% | 59.6 ± 11.97% | – | 56.9 ± 11.54% | 59.6 ± 11.97% | 97.4 ± 12.98 % | – | – | ~97% | –
8 | Cc1ccc2c(c1)NC(=O)/C(=C/c1ccsc1)O2 [HSB-4] | – | 60.3 ± 4.47% | 61.0 ± 3.58% | 65.0 ± 4.34% | 60.3 ± 4.47% | 61.0 ± 3.58% | inactive | lower | – | –
9 | CC(=O)Oc1c(Br)cc(/C=C2\Oc3ccc(F)cc3NC2=O)cc1Br [HSB-5] | 65.9 ± 5.08% | 69.3 ± 9.75% | – | 65.9 ± 5.08% | 69.3 ± 9.75% | 95.6 ± 0.98 % | – | – | – | protective
10 | COc1cc(/C=C2\Oc3ccc(I)cc3NC2=O)cc(OC)c1OC [HSB-6] | 61.9 ± 9.07% | 72.1 ± 19.33% | 59.4 ± 13.11% | 61.9 ± 9.07% | 72.1 ± 19.33% | 59.4 ± 13.11% | lack of neuroprotection | – | – | –
11 | Cc1ccc2c(c1)NC(=O)/C(=C/c1ccccn1)O2 [HSB-7] | 59.4 ± 13.93% | – | 88.1 ± 2.44 % | 59.4 ± 13.93% | 59.8 ± 6.40% | 88.1 ± 2.44 % | – | – | – | –
12 | CN(C)c1ccc(C=C2Oc3ccccc3NC2=O)cc1 [HSB-9] | – | 68.8 ± 13.54% | 63.3 ± 1.73% | 67.3 ± 16.43% | 68.8 ± 13.54% | 63.3 ± 1.73% | – | lower | – | –
13 | O=C1Nc2ccccc2OC1=Cc1cccs1 [HSB-11] | 64.2 ± 12.18% | 68.8 ± 4.26% | 68.8 ± 4.49% | 64.2 ± 12.18% | 68.8 ± 4.26% | 68.8 ± 4.49% | inactive | – | – | –
14 | O=C1Nc2ccccc2OC1=Cc1ccsc1 [HSB-12] | 76.8 ± 5.79 % | 76.2 ± 3.42 % | 81.4 ± 9.45 % | 76.8 ± 5.79 % | 76.2 ± 3.42 % | 81.4 ± 9.45 % | inactive | – | – | –
15 | COc1cc(C=C2Oc3ccccc3NC2=O)cc(OC)c1OC [HSB-14] | 63.9 ± 2.26% | 70.0 ± 1.63% | 69.2 ± 5.30% | 63.9 ± 2.26% | 70.0 ± 1.63% | 69.2 ± 5.30% | – | – | – | –
16 | COc1cc(/C=C2\Oc3ccc(C)cc3NC2=O)cc(OC)c1OC [HSB-15] | 60.7 ± 2.76% | 66.5 ± 9.26% | 63.9 ± 3.32% | 60.7 ± 2.76% | 66.5 ± 9.26% | 63.9 ± 3.32% | – | – | – | –
17 | O=C1Nc2ccccc2OC1=Cc1c[nH]c2ccccc12 [HSB-20] | 52.2 ± 10.11% | 62.5 ± 3.14% | 48.3 ± 12.11% | 52.2 ± 10.11% | 62.5 ± 3.14% | 48.3 ± 12.11% | – | – | – | –
